# Measurements: patent publication US20250345318A1, “COMPOUND AND USE THEREOF IN PREVENTING OR TREATING RADIATION DAMAGE” (SIMCERE PHARMACEUTICAL CO., LTD., priority 2022, published 2025)
# Key:
# C57BL/6 male mice [1] = test: Survival of mice receiving total body X-ray irradiation (Example 1); assay type: in vivo
# Procedure: C57BL/6 male mice (24.8±1.6 g in body weight) aged 10 weeks were divided into two groups of 11 mice each. After acclimating to the environment, JAC4 (100 mg/kg) or an equal volume of vehicle (polyethylene glycol:ethanol:physiological saline=47.5:7.5:50, v/v/v) was orally administered to the mice once daily for 7 consecutive days. After that, the mice were subjected to total body X-ray irradiation (6.5 Gy) and JAC4 or vehicle treatment was continued. After 3 days, the administration of JAC4 or vehicle was discontinued. The status was observed daily and the body weights of the mice were recorded.
# C57BL/6 male mice [2] = test: Small intestine epithelial injury after abdominal X-ray irradiation 12 Gy (Example 10); assay type: in vivo; conditions: for small intestine crypt height / small intestine histopathological score: JAC4 100 mg/kg; for small intestine villus length: JAC4 100 mg/kg oral 7 days
# Procedure: C57BL/6 male mice (24.7±0.9 g in body weight) aged 10 weeks were divided into 3 groups: a vehicle control group (n=6), a vehicle+radiation group (n=12), and a JAC4+radiation group (n=12). JAC4 (100 mg/kg) or an equal volume of vehicle (polyethylene glycol:ethanol:physiological saline=47.5:7.5:50, v/v/v) was orally administered to the mice once daily for 7 consecutive days. After that, the mice in the radiation groups were subjected to abdominal X-ray irradiation (12 Gy). The mice in the vehicle control group (n=6), the vehicle+radiation group (n=6), and the JAC4+radiation group (n=6) were sacrificed at 6 h, and blood samples and small intestine tissues were collected. The remaining mice in the vehicle+radiation group (n=6) and the JAC4+radiation group (n=6) were sacrificed after day 8, and blood samples and small intestine tissues were collected. In the process, abdominal irradiation was given while sparing the femoral region to minimize damage to the hematopoietic system. After the abdominal irradiation, HE staining was performed on the small intestines of mice in all groups, and the small intestine villus lengths, histopathological scores of the small intestine tissue sections, and the crypt heights were measured in all groups (* p<0.05, *** p<0.001).
# IEC-6 cells = test: Mitochondrial membrane potential by JC-1 staining in irradiated IEC-6 cells (Example 13); assay type: cell-based; conditions: JAC4 24 h pretreatment + 12 Gy, 24 h after
# Procedure: IEC-6 cells were pretreated for 24 h with JAC4 ([…]) or DMSO and subjected to radiation (12 Gy) treatment. After 24 h the ROS produced in the IEC-6 cells was determined with a DCFH probe, the apoptosis of IEC-6 cells was determined by Hoechst staining, the mitochondrial membrane potential in IEC-6 cells was determined by JC-1 staining, and the apoptotic IEC-6 cell ratio of cells different treatments and the red/green fluorescence ratio in IEC-6 cells after different treatments were calculated (**p<0.01 and ***p<0.001).
# BEAS-2B cells [3] = test: γ-H2AX foci and Western blot (DSBs), BEAS-2B (Example 22); assay type: cell-based, human
# Procedure: To investigate the effect of JAC4 in combination with X-ray on DSBs in SPCA-1 and BEAS-2B cells, SPCA-1 and BEAS-2B cells were pretreated with 10 μM JAC4 for 24 h and 4 Gy X-ray for 2 h, and then subjected to γ-H2AX fluorescent labeling and Western immunoblot (see Example 4 for detailed procedures).
# SPCA-1 cells = test: Apoptosis (Hoechst 33342) and mitochondrial membrane potential (JC-1), SPCA-1 (Example 22); assay type: cell-based, human
# Procedure: Severe DSBs may cause apoptosis. SPCA-1 and BEAS-2B cells were plated and cultured for 24 h before they were treated with 10 μM JAC4 for 24 h and 4 Gy X-ray for 24 h. The cells were stained with Hoechst 33342 (see Hoechst staining for apoptosis detection in Example 13) to evaluate the effect of JAC4 in combination with radiation on apoptosis. […] The decrease in mitochondrial membrane potential (JC-1) is a marker event in the early stage of apoptosis. The mitochondrial membrane potential was measured using fluorescent probe JC-1. The red fluorescence indicates a high mitochondrial membrane potential leading to JC-1 aggregate formation, and the green fluorescence indicates the mitochondrial membrane potential depolarization. The fluorescence ratio of red to green reflects the mitochondrial membrane potential and the number of early apoptotic cells.
# BEAS-2B cells [4] = test: ROS, SOD, CAT and MDA assays, BEAS-2B (Example 22); assay type: cell-based, human
# Source text: The large amount of reactive oxygen species (ROS) induced by X-ray and the sustained oxidative stress reaction may cause DNA damage. Superoxide dismutase (SOD) and catalase (CAT) exert antioxidant effects, and the lipid oxidation product malondialdehyde (MDA) and ROS can reflect the oxidative stress level in vivo. The intracellular ROS level was detected using the fluorescent probe DCFH-DA. […] The supernatant of BEAS-2B cells was extracted and subjected to an MDA assay and an activity assay for CAT and SOD.
# [5] = tested on: SPCA-1 cells transfected with JWA-knockdown plasmids; test: Colony formation of SPCA-1 cells transfected with JWA-knockdown plasmids (Example 22); assay type: cell-based, human; conditions: JAC4-treated JWA-knockdown SPCA-1 vs JAC4-treated si-Control
# Procedure: 1. SPCA-1 and BEAS-2B cells (or SPCA-1 and BEAS-2B cells transfected with JWA-knockdown plasmids) in the exponential growth phase were plated in 6-well plates at a specific amount. The number of plated cells is as follows
# 2. After the cells adhered to the container wall, the cells were treated (or not treated) with […] JAC4 and treated with X-ray of 0, 2, 4, or 6 Gy. The medium was replaced with a fresh medium containing JAC4 at the corresponding concentration once every 2 days (or the cells were treated with X-ray of 0, 2, 4, or 6 Gy after adhesion, and the medium was replaced with a fresh medium once every 2 days).
# 3. After the cells were cultured for 10-14 days, colonies were visually observed. The culture medium was discarded, and the cells were fixed with methanol for 10-20 min, stained with crystal violet for 10 min, slowly washed with flowing clear water thrice, photographed, and counted for colonies containing>50 cells.
# 4. The colony forming efficiency (CFE)=(number of colonies formed/number of seeded cells) 100% was calculated, and the cell survival fraction (SF)=(colony forming efficiency of treatment group/colony forming efficiency of 0 Gy group)×100% was calculated from the colony forming efficiency. […]
# [6] = 6 h after abdominal X-ray 12 Gy
# [7] = day 8 after abdominal X-ray 12 Gy
compound,measurement,setting,value
c1ccc(CSc2nnc(C3COc4ccccc4O3)o2)nc1 (stereo not shown) [JAC4],mean survival after radiation,"C57BL/6 male mice [1]; JAC4 100 mg/kg oral once daily, 7 days before to 3 days after total body X-ray 6.5 Gy, observation day 30",17.9 ± 8.4 days
same,number of mice died,"C57BL/6 male mice [1]; JAC4 100 mg/kg oral, TBI 6.5 Gy, 11 mice per group",6 mice
same,number of mice survived,"C57BL/6 male mice [1]; JAC4 100 mg/kg oral, TBI 6.5 Gy, 11 mice per group, vehicle group all dead on day 12",5 mice
same,weight loss after radiation,"C57BL/6 male mice [1]; JAC4 100 mg/kg oral, TBI 6.5 Gy, vs vehicle",slower
same,small intestine crypt height,C57BL/6 male mice [2]; [6],49.80±4.06 μm
same,small intestine histopathological score,C57BL/6 male mice [2]; [6],3.17±0.41
same,small intestine villus length,C57BL/6 male mice [2]; [6],308.25±25.65 μm
same,small intestine crypt height,C57BL/6 male mice [2]; [7],53.76±3.33 μm
same,small intestine histopathological score,C57BL/6 male mice [2]; [7],2.83±0.41
same,small intestine villus length,C57BL/6 male mice [2]; [7],300.38±33.27 μm
same,"red/green fluorescence ratio (JC-1, mitochondrial membrane potential)",IEC-6 cells,0.49±0.05
same,formation of γ-H2AX foci,BEAS-2B cells [3]; 10 μM JAC4 24 h + 4 Gy X-ray 2 h vs X-ray treatment group,significantly reduced
same,JWA expression level (Western blot),BEAS-2B cells [3]; 10 μM JAC4 + 4 Gy X-ray,increased
same,γ-H2AX protein expression level (Western blot),BEAS-2B cells [3]; 10 μM JAC4 + 4 Gy X-ray,decreased
same,apoptosis (Hoechst 33342),"SPCA-1 cells; SPCA-1, 10 μM JAC4 24 h + 4 Gy X-ray 24 h",increased the pro-apoptotic effect of X-ray
same,mitochondrial membrane potential (JC-1),"SPCA-1 cells; SPCA-1, JAC4 in combination with X-ray",aggravated the decrease in mitochondrial membrane potential
same,CAT activity,BEAS-2B cells [4]; JAC4+X-ray group,3.56±0.02 U/mg
same,SOD activity,BEAS-2B cells [4]; JAC4+X-ray group,24.20±1.18 U/mg
same,oxidation product MDA level,BEAS-2B cells [4]; JAC4+X-ray group,31.35 ± 4.34 µM/mg
same,CAT activity,BEAS-2B cells [4]; JAC4 group,3.42±0.08 U/mg
same,SOD activity,BEAS-2B cells [4]; JAC4 group,28.67±1.36 U/mg
same,oxidation product MDA level,BEAS-2B cells [4]; JAC4 group,24.95 ± 1.63 µM/mg
same,ROS level,BEAS-2B cells [4]; JAC4 in combination with X-ray,significantly reduced
same,cell survival rate (radiosensitization curve),[5],significantly increased
same,number of colonies formed,[5],significantly higher
